How the values were obtained:
[1] = molecular target: 5-hydroxytryptamine receptor 6 (Homo sapiens) (UniProt P50406); assay: 5HT6/H Cerep selectivity data (BI); conditions: Compound concentration 20.0 uM
[2] = molecular target: Cannabinoid receptor 2 (Homo sapiens) (UniProt P34972); assay: CB2/PERIPH/H Cerep selectivity data (BI); conditions: Compound concentration 20.0 uM
[3] = molecular target: Sodium-dependent noradrenaline transporter (Homo sapiens) (UniProt P23975); assay: NEUP/H Cerep selectivity data (BI); conditions: Compound concentration 20.0 uM
Sequence of Sodium-dependent noradrenaline transporter (Homo sapiens) (P23975 whole entry): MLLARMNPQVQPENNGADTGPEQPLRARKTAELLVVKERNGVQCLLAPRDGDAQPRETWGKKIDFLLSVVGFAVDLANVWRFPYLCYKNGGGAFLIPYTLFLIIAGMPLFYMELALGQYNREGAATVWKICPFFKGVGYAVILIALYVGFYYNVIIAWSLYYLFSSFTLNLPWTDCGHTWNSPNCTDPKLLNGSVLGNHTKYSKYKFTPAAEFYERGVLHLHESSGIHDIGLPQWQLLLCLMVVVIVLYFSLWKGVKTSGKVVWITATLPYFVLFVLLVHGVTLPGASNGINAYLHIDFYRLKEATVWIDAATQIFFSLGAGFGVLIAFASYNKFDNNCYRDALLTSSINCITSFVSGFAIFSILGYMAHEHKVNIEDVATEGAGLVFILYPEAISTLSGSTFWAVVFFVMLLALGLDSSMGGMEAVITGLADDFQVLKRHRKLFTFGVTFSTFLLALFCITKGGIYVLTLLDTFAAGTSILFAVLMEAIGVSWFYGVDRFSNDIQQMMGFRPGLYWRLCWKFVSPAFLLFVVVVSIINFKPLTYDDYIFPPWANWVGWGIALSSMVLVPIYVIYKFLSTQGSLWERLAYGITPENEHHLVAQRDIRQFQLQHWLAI

[4] = molecular target: Neprilysin (Homo sapiens) (UniProt P08473); assay: N_ENDOPEP Cerep selectivity data (BI); conditions: Compound concentration 20.0 uM
[5] = molecular target: T1, 5-hydroxytryptamine receptor 1A (Homo sapiens) (UniProt P08908); assay: 5HT1A/HU Eurofins-Panlabs selectivity data (BI); conditions: Compound concentration 10.0 uM
T1 sequence (whole entry): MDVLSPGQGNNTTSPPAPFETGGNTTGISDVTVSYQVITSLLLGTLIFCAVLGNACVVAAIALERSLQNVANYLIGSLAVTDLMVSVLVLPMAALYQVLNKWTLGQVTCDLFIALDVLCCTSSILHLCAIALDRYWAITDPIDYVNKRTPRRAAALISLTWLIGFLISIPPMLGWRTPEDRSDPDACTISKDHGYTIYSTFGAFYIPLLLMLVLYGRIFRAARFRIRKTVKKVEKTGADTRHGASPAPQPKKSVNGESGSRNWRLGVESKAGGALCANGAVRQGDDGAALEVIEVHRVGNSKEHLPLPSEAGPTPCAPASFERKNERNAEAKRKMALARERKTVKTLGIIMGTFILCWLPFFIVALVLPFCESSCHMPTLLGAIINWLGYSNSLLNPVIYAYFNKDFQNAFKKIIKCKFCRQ

[6] = molecular target: Cannabinoid receptor 1 (Homo sapiens) (UniProt P21554); assay: CB1 Eurofins-Panlabs selectivity data (BI); conditions: Compound concentration 10.0 uM
Sequence of Cannabinoid receptor 1 (Homo sapiens) (P21554 whole entry): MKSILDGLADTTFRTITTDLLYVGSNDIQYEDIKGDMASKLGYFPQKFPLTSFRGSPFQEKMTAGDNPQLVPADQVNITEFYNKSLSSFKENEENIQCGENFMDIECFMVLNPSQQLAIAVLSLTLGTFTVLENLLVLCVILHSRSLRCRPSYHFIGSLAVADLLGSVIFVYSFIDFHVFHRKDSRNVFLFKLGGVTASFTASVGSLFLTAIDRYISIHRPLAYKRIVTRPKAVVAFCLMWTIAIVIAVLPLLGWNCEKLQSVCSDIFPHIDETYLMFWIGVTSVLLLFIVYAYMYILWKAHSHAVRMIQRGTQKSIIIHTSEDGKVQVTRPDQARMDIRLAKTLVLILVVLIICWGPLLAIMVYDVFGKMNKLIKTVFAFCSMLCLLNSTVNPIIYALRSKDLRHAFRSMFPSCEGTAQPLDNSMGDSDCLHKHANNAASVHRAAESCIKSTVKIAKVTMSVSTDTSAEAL

[7] = molecular target: Gamma-aminobutyric acid receptor subunit alpha-1 (Rattus norvegicus) (UniProt P62813); assay: GABAACENTR Eurofins-Panlabs selectivity data (BI); conditions: Compound concentration 10.0 uM
[8] = molecular target: RAC-beta serine/threonine-protein kinase (Homo sapiens) (UniProt P31751); assay: AKT2 Invitrogen selectivity data (BI); conditions: Compound concentration 3.0 uM
[9] = molecular target: Epithelial discoidin domain-containing receptor 1 (Homo sapiens) (UniProt Q08345); assay: DDR1 Invitrogen selectivity data (BI); conditions: Compound concentration 3.0 uM
Sequence of Epithelial discoidin domain-containing receptor 1 (Homo sapiens) (Q08345 whole entry, the tested form may be a part): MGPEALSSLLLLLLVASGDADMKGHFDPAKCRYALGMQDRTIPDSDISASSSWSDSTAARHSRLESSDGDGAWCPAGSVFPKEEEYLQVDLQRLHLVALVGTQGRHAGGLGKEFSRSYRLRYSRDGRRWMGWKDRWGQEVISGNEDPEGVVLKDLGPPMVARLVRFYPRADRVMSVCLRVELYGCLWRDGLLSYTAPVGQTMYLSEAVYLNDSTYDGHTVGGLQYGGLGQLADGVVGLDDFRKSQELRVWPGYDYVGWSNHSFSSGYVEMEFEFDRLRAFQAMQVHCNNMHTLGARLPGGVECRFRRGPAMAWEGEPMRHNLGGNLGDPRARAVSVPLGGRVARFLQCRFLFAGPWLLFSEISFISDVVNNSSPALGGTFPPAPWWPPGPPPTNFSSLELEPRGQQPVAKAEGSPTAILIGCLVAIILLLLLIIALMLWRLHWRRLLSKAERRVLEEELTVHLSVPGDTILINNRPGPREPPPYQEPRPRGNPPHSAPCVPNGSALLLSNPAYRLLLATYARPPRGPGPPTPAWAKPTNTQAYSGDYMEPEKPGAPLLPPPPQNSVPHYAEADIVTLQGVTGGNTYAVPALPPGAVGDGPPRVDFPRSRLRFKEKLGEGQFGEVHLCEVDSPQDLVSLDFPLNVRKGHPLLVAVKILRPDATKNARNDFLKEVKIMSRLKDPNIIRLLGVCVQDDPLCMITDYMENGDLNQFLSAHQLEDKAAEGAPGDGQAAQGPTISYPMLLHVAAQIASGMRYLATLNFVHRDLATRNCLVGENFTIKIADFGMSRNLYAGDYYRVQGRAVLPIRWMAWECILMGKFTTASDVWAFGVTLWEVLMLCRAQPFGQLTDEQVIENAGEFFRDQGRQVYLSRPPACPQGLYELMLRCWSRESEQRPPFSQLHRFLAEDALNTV

[10] = molecular target: T2, Ephrin type-B receptor 3 (Homo sapiens) (UniProt P54753); assay: EPHB3 Invitrogen selectivity data (BI); conditions: Compound concentration 3.0 uM
T2 sequence (whole entry): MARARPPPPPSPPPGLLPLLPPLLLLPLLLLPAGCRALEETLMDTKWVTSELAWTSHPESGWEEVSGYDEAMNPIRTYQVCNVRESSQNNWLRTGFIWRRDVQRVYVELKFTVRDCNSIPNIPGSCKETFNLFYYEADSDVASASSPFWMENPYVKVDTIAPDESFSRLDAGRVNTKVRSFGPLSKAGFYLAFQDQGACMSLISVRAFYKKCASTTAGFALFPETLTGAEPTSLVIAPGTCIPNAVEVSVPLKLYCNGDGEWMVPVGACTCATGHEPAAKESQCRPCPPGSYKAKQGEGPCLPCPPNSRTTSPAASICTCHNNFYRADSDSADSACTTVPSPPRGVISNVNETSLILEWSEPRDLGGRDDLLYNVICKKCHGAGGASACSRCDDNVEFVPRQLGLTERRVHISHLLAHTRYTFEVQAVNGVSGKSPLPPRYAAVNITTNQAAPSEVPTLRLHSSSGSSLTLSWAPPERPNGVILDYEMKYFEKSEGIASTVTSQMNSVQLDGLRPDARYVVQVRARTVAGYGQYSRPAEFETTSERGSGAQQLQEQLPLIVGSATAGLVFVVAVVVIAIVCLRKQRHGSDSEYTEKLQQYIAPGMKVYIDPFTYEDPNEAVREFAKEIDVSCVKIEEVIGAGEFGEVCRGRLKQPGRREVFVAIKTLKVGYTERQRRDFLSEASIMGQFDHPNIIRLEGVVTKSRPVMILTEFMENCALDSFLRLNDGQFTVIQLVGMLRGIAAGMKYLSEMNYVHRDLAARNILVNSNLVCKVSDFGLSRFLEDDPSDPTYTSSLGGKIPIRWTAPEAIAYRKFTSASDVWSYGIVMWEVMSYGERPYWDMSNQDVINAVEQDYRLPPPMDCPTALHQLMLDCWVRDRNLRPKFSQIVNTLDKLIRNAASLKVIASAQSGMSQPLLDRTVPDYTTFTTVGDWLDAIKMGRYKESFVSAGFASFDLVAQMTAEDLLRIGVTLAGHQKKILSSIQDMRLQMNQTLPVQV

[11] = molecular target: Tyrosine-protein kinase Fes/Fps (Homo sapiens) (UniProt P07332); assay: FES Invitrogen selectivity data (BI); conditions: Compound concentration 3.0 uM
Sequence of Tyrosine-protein kinase Fes/Fps (Homo sapiens) (P07332 whole entry): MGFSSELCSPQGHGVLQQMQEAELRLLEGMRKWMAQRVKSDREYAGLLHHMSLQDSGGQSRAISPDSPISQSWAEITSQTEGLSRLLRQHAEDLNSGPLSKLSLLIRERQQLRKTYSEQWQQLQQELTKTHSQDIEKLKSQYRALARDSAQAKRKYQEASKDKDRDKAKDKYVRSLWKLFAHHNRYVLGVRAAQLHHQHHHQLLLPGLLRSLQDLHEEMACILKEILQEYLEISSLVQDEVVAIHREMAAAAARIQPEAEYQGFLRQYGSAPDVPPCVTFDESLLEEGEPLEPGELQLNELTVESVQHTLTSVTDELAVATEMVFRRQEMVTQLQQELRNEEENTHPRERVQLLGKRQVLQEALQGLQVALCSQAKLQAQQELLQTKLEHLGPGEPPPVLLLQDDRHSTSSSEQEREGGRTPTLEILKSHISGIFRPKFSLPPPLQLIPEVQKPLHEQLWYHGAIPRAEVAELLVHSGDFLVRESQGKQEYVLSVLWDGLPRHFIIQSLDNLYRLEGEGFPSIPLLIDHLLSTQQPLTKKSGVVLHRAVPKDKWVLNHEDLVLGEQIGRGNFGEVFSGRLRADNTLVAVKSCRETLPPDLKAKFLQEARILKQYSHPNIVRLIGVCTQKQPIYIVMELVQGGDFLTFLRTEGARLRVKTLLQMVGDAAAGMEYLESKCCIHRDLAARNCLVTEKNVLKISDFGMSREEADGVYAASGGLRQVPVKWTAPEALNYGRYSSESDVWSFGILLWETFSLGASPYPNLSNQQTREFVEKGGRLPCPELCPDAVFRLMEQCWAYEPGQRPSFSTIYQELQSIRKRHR

[12] = molecular target: Fibroblast growth factor receptor 2 (Homo sapiens) (UniProt P21802); assay: FGFR2 Invitrogen selectivity data (BI); conditions: Compound concentration 3.0 uM
Sequence of Fibroblast growth factor receptor 2 (Homo sapiens) (P21802 22-821 limits assumed): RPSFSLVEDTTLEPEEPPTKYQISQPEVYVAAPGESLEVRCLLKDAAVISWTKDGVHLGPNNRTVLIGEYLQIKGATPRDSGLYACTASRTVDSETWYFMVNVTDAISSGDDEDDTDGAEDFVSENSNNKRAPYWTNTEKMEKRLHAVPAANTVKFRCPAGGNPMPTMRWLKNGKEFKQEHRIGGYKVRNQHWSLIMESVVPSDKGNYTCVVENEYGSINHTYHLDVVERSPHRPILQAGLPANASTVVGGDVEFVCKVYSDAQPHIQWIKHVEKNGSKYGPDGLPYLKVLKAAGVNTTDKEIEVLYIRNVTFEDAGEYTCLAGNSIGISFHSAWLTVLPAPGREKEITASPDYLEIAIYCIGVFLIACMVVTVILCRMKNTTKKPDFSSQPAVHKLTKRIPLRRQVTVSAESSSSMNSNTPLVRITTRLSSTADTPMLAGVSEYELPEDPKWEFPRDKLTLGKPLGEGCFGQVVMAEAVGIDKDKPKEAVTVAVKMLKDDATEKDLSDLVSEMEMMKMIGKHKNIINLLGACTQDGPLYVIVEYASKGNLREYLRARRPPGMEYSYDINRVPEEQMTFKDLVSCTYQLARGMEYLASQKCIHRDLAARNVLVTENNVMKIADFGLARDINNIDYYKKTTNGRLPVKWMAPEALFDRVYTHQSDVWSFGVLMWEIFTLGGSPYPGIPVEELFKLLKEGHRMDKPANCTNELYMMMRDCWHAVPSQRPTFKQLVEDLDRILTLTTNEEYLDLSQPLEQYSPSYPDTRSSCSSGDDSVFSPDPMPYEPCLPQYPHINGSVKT

[13] = molecular target: Mitogen-activated protein kinase 9 (Homo sapiens) (UniProt P45984); assay: MAPK9 Invitrogen selectivity data (BI); conditions: Compound concentration 3.0 uM
[14] = molecular target: T3, NUAK family SNF1-like kinase 1 (Homo sapiens) (UniProt O60285); assay: NUAK1 Invitrogen selectivity data (BI); conditions: Compound concentration 3.0 uM
T3 sequence (whole entry): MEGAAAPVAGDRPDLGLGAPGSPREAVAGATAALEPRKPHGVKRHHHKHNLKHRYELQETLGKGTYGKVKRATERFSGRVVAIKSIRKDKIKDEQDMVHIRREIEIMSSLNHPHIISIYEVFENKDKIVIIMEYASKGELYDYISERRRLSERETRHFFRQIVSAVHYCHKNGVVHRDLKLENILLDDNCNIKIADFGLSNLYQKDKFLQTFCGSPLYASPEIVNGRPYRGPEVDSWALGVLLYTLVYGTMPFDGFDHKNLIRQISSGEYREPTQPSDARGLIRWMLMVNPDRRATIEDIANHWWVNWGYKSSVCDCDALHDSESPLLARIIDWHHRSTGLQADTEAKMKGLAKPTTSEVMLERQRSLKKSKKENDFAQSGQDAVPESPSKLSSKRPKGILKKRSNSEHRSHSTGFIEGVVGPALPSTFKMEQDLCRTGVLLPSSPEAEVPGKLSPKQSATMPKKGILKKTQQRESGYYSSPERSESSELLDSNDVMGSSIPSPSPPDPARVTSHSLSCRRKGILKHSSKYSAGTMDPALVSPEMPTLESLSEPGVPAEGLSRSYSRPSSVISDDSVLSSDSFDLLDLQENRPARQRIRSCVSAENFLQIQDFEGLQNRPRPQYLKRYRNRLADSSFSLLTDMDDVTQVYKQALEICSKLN

[15] = molecular target: Serine/threonine-protein kinase PAK 1 (Homo sapiens) (UniProt Q13153); assay: PAK1 Invitrogen selectivity data (BI); conditions: Compound concentration 3.0 uM
[16] = test system: Platelet-derived growth factor receptor alpha (Homo sapiens), P16234 [V561D]; assay: PDGFRA V561D Invitrogen selectivity data (BI); conditions: Compound concentration 3.0 uM
[17] = molecular target: Serine/threonine-protein kinase PLK3 (Homo sapiens) (UniProt Q9H4B4); assay: PLK3 Invitrogen selectivity data (BI); conditions: Compound concentration 3.0 uM
[18] = molecular target: Protein-tyrosine kinase 2-beta (Homo sapiens) (UniProt Q14289); assay: PTK2B Invitrogen selectivity data (BI); conditions: Compound concentration 3.0 uM
Sequence of Protein-tyrosine kinase 2-beta (Homo sapiens) (Q14289 whole entry, looked up): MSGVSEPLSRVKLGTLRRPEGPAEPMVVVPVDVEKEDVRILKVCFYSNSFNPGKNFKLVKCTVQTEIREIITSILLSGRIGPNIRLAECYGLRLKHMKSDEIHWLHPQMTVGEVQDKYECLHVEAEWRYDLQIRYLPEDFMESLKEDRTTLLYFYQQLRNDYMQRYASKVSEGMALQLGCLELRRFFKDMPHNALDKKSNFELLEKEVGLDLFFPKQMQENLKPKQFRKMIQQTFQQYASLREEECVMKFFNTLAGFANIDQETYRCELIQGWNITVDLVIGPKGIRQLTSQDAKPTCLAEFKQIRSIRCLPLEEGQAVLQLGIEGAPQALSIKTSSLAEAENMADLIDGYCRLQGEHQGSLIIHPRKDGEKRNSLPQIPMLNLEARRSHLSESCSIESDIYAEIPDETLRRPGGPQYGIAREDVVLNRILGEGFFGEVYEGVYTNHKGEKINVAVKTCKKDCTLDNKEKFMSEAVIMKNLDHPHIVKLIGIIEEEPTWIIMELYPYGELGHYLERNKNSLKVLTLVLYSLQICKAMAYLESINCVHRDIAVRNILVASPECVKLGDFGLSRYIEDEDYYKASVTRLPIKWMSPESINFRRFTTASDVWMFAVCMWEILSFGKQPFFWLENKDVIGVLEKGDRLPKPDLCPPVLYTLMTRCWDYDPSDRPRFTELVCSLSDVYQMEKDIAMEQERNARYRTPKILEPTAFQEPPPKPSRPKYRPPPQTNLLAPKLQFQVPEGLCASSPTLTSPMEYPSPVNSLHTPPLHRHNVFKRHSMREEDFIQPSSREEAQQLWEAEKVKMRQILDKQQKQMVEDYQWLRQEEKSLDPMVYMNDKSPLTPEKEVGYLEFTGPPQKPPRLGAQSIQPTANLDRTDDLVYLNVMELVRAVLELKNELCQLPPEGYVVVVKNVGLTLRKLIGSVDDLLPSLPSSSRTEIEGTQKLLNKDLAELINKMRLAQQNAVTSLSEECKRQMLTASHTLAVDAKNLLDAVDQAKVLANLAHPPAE

Measured: residual activity

Sequence of Cannabinoid receptor 2 (Homo sapiens) (P34972 whole entry): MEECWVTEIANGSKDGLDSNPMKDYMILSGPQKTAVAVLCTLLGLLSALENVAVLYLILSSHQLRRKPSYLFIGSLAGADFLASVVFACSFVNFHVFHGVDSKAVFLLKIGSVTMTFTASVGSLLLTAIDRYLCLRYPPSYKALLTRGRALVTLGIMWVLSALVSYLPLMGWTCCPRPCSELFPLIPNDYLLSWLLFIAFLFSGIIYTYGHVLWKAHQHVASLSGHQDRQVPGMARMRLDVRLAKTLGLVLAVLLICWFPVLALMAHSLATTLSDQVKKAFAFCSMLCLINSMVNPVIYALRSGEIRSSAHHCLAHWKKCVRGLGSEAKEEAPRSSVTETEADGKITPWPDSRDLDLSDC

CN(C)C(=O)Cn1cc(-c2nc([C@@](C)(c3ccc(-c4cnc(N)nc4)cc3)C3CC3)no2)cn1 [BI 665915]
inactive: [1] 95% | [2] 93% | [3] 94% | [4] 108% | [5] 127% | [6] 91% | [7] 115% | [8] 98% | [9] 99% | [10] 97% | [11] 94.5% | [12] 89% | [13] 101% | [14] 96% | [15] 96% | [16] 85% | [17] 98% | [18] 86%
